Source: publication PMC7210504 (Biochemistry, 2017)

Legend:
ChuY [1] = biological target: T1, ChuY (Escherichia coli, UniProt Q8X5N4); settings: 30 μM NADPH; anaerobic, pH 8.1, 25 °C; substrate inhibition constant (kinetic)
ChuY [2] = biological target: T1, ChuY; settings: read-out: steady state parameters^a / Km ^app; 30 μM NADPH; anaerobic, pH 8.1, 25 °C
[3] = biological target: ChuY from Escherichia coli O157:H7 (anaerobilin reductase) (Escherichia coli O157:H7); assay: AUC
ChuY [4] = biological target: T1, ChuY; assay: biochemical

deuteroanaerobilin [DAB]
equilibrium binding^b / Ki ^app (ChuY [1]): 14 ± 2 µM
Km (ChuY [2]): 1.6 ± 0.3 µM

ChuY from Escherichia coli O157:H7 (anaerobilin reductase) (enzyme)
percent of the c(s) distribution (species consistent with a dimer) [3]: 90%
stoichiometry N [3]: 2

NC(=O)C1=CN([C@@H]2O[C@H](COP(=O)(O)OP(=O)(O)OC[C@H]3O[C@@H](n4cnc5c(N)ncnc54)[C@H](OP(=O)(O)O)[C@@H]3O)[C@@H](O)[C@H]2O)C=CC1 [NADPH]
Kd (ChuY [4]): 2.7 ± 0.2 µM
